Experimental data from US10858422B2, “Methods for treating systemic lupus erythematosus with an anti-apolipoprotein B antibody” (Abcentra, LLC, priority 2016, dated 2020).
Marks after values point to notes of the source that are not given here.

Assays:
[1] = test system: human PBMC; assay: Death receptor activation of human PBMC: release of soluble death receptors, apoptosis; assay type: cell-based; conditions: for release of Fas into culture medium / release of TNF-R1: healthy donor PBMC, Fas ligand 0.5 μg/ml, IL-1β 10 ng/ml, TNF 10 ng/ml, LPS 10 μg/ml
Description: PBMCs from SLE patients (n=6, x female and x male, age x+/−x years) and matched healthy controls (n=6, x female and x male, age x+/−x years) as well as from a healthy donor were isolated using FicollPaque Plus (GE healthcare, Waukesha, Wis., USA) density gradient centrifugation according to manufacturer's instructions. The cells from SLE patients and controls were resuspended in 40% autologous serum, 40% RPMI 1640 medium (Thermo Fisher Scientific, Waltham, Mass., USA) and 20% dimethyl sulfoxide (Sigma Aldrich, St. Louis, […]., USA) and frozen in liquid nitrogen.
(§1) Cells from healthy donors were seeded freshly at a density of 0.5×10^6 cells per well in complete RPMI (10 U/ml Penicillin/streptomycin, 1% L-glutamine, 1% sodium pyruvate, 1% Hepes and 0.1% mercaptoethanol) with 2% FBS (HyClone South Logan, Utah, USA). For death receptor activation, IL-1β, soluble Fas ligand, TNF (Peprotech, Rocky Hill, N.J., USA) and LPS (Sigma Aldrich) were used at a concentration of 10 ng/ml, 0.5 μg/ml, 10 ng/ml and 10 μg/ml respectively.
as §1, with “from a” for “from”, “donor” for “donors”, “TNFα” for “TNF”
Cell supernatants from death receptor activated PBMCs from a healthy donor and SLE patients/controls were used for measurement of soluble Fas, TNF-R1 and TRAIL-R2 with a magnetic bead system multiplex assay (R&D Systems, Minneapolis, Minn., USA) obtained by Luminex machine (Bio-Rad). For SLE patients and controls, TNF-R1 concentration was measured with ELISA (Abcam) according to manufacturer's recommendations.

[2] = test system: Spleen T-cells from gld.apoE−/− mice; assay: Cytokine production from spleen T-cells activated by CD3/CD28; assay type: in vivo, mouse; conditions: Avg; for IFN-γ production / IL-6 production / IL-10 production / IL-12 (p70) production: Normal Diet; for TNFα Production from Spleen T-cells: Western Diet
Experimental: Lymph nodes and spleen were harvested and weighed. Splenocytes were isolated and analyzed for T-regulatory cell populations by immunofluorescence staining and flow cytometry. Splenocytes were also cultured and T-cells activated in vitro by Mouse T-Activator CD3/CD28. Production of cytokines INF-γ, IL-6, IL-10, IL-12, and […] by activated T-cells were assessed with immunoassays.
CVX-12 immunization is hypothesized to impact atherosclerosis via modulation of T-cell cytokine release. Thus cytokine release by cultured splenocytes activated by CD3 and CD28 was assessed for the cytokines IFNγ, IL-6, IL-10, IL-12 (p70), and TNFα (Tables 6-12). CVX-12 immunization increased IL-6 and IL-10 cytokine release from spleen T-cells in apoE^−/− mice. […] IL-10 release from gld.apoE^−/− splenocytes was decreased by CVX-12 immunization of gld.apoE^−/− mice on western diet.

[3] = test system: gld.apoE−/− mice; assay: Relative anti-P210 IgM/IgG antibody levels in serum (ELISA); assay type: in vivo, mouse; conditions: normal diet (ND), ± SEM
Experimental: Each animal dosed with a test article received subcutaneous primary immunization in the dorsal interscapular area at Day 0 (7 weeks of age), followed by a booster on Day 21 and 35 (10 and 12 weeks of age). CVX-3-84 was used to dose ApoE^−/− (n=20), gld mice (n=20). CVX-3-123 was used to dose gld.ApoE^−/− (n=30 on high cholesterol chow; n=30 on normal chow diet).
20 gld.ApoE^−/− mice in the positive control group received an oral dose of rosiglitazone at 10 mg/kg/day in normal chow starting on Day 0 (7 weeks of age) and continuing for the duration of the study period. Mice receiving Rosiglitazone were sacrificed at Day 126 (25 weeks of age).
Serum and urine was collected at day 63 of the study (16 weeks of age). Serum collected at day 63 of the study was analyzed for anti-P210 IgM and IgG antibodies. Levels of oxidized phospholipid was also measured in gld.apoE^−/− mice maintained on normal diet.
Serum and urine was collected at euthanasia. Endpoint serum was analyzed for anti-nuclear antibody (ANA) titers, total cholesterol, triglycerides, anti-P210 IgM antibodies, and anti-P210 IgG antibodies. Endpoint serum from gld.ApoE^−/− animals maintained on normal diet was also analyzed for anti-cardiolipin antibodies. Anti-nuclear antibody titers were tested using the NOVA-lite Hep2 ANA assay, and serum dilutions of 1:100, 1:1000, 1:10000, 1:30000, and 1:90000 were tested for nuclear-localized antibody reactivity to human epithelial cells. Reactivity was detected using FITC-conjugated goat anti-mouse IgG antibody. ANAs were scored based on the presence or absence of antibody signal at each titer. Total cholesterol was assessed using Cholesterol E reagent according to the manufacturer's protocol. Triglyceride levels were assessed with Triglyceride Reagent and with a glycerol standard. Anti-P210 antibodies were detected by ELISA using reconstituted P210 peptide.

[4] = test system: MRL/lpr ApoE−/− mice; assay: Flow cytometry of blood, spleen and lymph node cells after oral immunization; assay type: in vivo, mouse; conditions: 30 μg/ml

TNF-α [reference compound]
release of Fas into culture medium [1]: no effect
release of TNF-R1 [1]: no effect

IL-1β: cytokine stimulus, 10 ng/ml [reference compound]
release of Fas into culture medium [1]: no effect
release of TNF-R1 [1]: stimulated

CN(CCOc1ccc(CC2SC(=O)NC2=O)cc1)c1ccccn1 (stereo not shown) [Rosiglitazone]
IFN-γ production ([2]; Stimulated): 11419.9 pg/mL
IL-6 production ([2]; Stimulated): 385.0* pg/mL
IL-10 production ([2]; Stimulated): 1528.3 pg/mL
IL-12 (p70) production ([2]; Stimulated): 44.7 pg/mL
IFN-γ production ([2]; Unstimulated): 24.2* pg/mL
IL-6 production ([2]; Unstimulated): 255.9* pg/mL
IL-10 production ([2]; Unstimulated): 196.0 pg/mL
IL-12 (p70) production ([2]; Unstimulated): 89.2 pg/mL
TNFα Production from Spleen T-cells ([2]; Stimulated (CD3/CD28)): 39.5 pg/mL
TNFα Production from Spleen T-cells ([2]; Unstimulated): 8.9 pg/mL
anti-P210 IgG ([3]; Endpoint): 0.68 ± 0.07 OD at 405 nm
anti-P210 IgM ([3]; Endpoint): 0.42 ± 0.06 ^a, c OD at 405 nm
anti-P210 IgG ([3]; Midpoint): 0.68 ± 0.07 OD at 405 nm
anti-P210 IgM ([3]; Midpoint): 0.64 ± 0.03 OD at 405 nm

CTB
central memory T cells in lymph node [4]: 34.5±10.6%
central memory helper T cells (CD3+CD4+CD62L+CD44int-hi) in spleen [4]: 19.4±5.2%
cytolytic T cell populations (CD3+CD8+CD62L+CD44int-hi) in spleen [4]: 18.2±3.7%

B1: Fas ligand: soluble Fas ligand used for death receptor activation of PBMC (protein)
chain: PSPPPEKKELRKVAHLTGKSNSRSMPLEWEDTYGIVLLSGVKYKKGGLVINETGLYFVYSKVYFRGQSCNNLPLSHKVYMRNSKYPQDLVMMEGKMMSYCTTGQMWARSSYLGAVFNLTSADHLYVNVSELSLVNFEESQTFFGLYKL
increase in the release of FAS ([1]; PBMCs from SLE patients): 73%
frequency of apoptotic lymphocytes ([1]; PBMCs from healthy controls (not in PBMCs from SLE patients)): increased
release of Fas into culture medium [1]: stimulated
release of TNF-R1 [1]: stimulated
